Source: the supplement of paper PMC10331698
± gives the standard deviation of the averaged measurements.

Experiments:
Experiment in all cases: LOEC (log10 uM (lowest observed effect concentration))
[1] = compound: C=CC(=O)OCCC(F)(F)C(F)(F)C(F)(F)C(F)(F)F [2-(Perfluorobutyl)ethyl acrylate]
Protocol: (§1)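 BioMAP Diversity Plus panel in human primary cell co-cultures, 4 concentrations in duplicate blinded samples. Responses are log10 fold change versus DMSO control, processed with tcpl v2.1.0. A hit is called when responses at any concentration exceed the cutoff (the larger of 3*bmad or log10(1.2)); the lowest observed effect concentration (modl_ga, log10 uM) is reported for hits.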

[2] = compound: CC(C)(C)C(=O)CC(=O)C(F)(F)C(F)(F)C(F)(F)F [(Heptafluorobutanoyl)pivaloylmethane]
Protocol: as §1

[3] = compound: CNS(=O)(=O)C(F)(F)C(F)(F)C(F)(F)C(F)(F)C(F)(F)C(F)(F)C(F)(F)C(F)(F)F [N-Methylperfluorooctanesulfonamide]
Protocol: as §1

Azathioprine = compound: Cn1cnc([N+](=O)[O-])c1Sc1ncnc2[nH]cnc12 [Azathioprine]
Protocol: as §1

Perfluorooctanamidine = compound: N=C(N)C(F)(F)C(F)(F)C(F)(F)C(F)(F)C(F)(F)C(F)(F)C(F)(F)F [Perfluorooctanamidine]
Protocol: as §1

[4] = compound: O=C(O)C(F)(F)C(F)(F)C(F)(F)C(F)(F)C(F)(F)C(F)(F)C(F)(F)C(F)(F)C(F)(F)C(F)(F)C(F)(F)C(F)(F)C(F)(F)F [Perfluorotetradecanoic acid]
Protocol: as §1

[5] = compound: O=C(O)C(F)(F)C(F)(F)C(F)(F)C(F)(F)C(F)(F)C(F)(F)C(F)(F)C(F)(F)C(F)(F)C(F)(F)C(F)(F)C(F)(F)F [Perfluorotridecanoic acid]
Protocol: as §1

[6] = compound: O=C(O)C(F)(F)C(F)(F)C(F)(F)C(F)(F)C(F)(F)C(F)(F)C(F)(F)C(F)(F)Cl [9-Chloro-perfluorononanoic acid]
Protocol: as §1

[7] = compound: O=C(O)C(F)(F)OC(F)(F)C(F)(F)OC(F)(F)C(F)(F)C(F)(F)C(F)(F)F [Perfluoro-3,6-dioxadecanoic acid]
Protocol: as §1

[8] = compound: O=P(O)(O)CCC(F)(F)C(F)(F)C(F)(F)C(F)(F)C(F)(F)C(F)(F)C(F)(F)C(F)(F)F [((Perfluorooctyl)ethyl)phosphonic acid]
Protocol: as §1

[9] = compound: O=S(=O)(O)C(F)(F)C(F)(F)C(F)(F)C(F)(F)F [Perfluorobutanesulfonic acid]
Protocol: as §1

[10] = compound: O=C(O)CCC(F)(F)C(F)(F)C(F)(F)C(F)(F)C(F)(F)F [2H,2H,3H,3H-Perfluorooctanoic acid]
Protocol: as §1

[11] = compound: O=S(=O)(O)C(F)(F)C(F)(F)C(F)(F)C(F)(F)C(F)(F)C(F)(F)C(F)(F)C(F)(F)F [Perfluorooctanesulfonic acid]
Protocol: as §1

[12] = compound: O=S(=O)(O)C(F)(F)C(F)(F)C(F)(F)C(F)(F)C(F)(F)C(F)(F)C(F)(F)C(F)(F)F [Potassium perfluorooctanesulfonate]
Protocol: as §1

Perfluorooctanamide = compound: NC(=O)C(F)(F)C(F)(F)C(F)(F)C(F)(F)C(F)(F)C(F)(F)C(F)(F)F [Perfluorooctanamide]
Protocol: as §1

[13] = compound: FC(F)(F)C(F)(F)C(F)(F)C(F)(F)C(F)(F)C(F)(F)C(F)(F)CCI [1-Iodo-1H,1H,2H,2H-perfluorononane]
Protocol: as §1

Which results are given for 3C Proliferation down?
LOEC (log10 uM) [1]: 1.78; LOEC (log10 uM) [2]: 1.78; LOEC (log10 uM) [3]: 1.54 ± 0.34; LOEC (log10 uM) (Azathioprine): 1.48; LOEC (log10 uM) (Perfluorooctanamidine): 1.78; LOEC (log10 uM) [4]: -0.199 ± 0.71; LOEC (log10 uM) [5]: 1.22 ± 0.37; LOEC (log10 uM) [6]: 1.78; LOEC (log10 uM) [7]: 1.04 ± 1; LOEC (log10 uM) [8]: 0.801 ± 0.71

How did the “LOEC (log10 uM)” value [2] turn out when 3C Thrombomodulin up was run?
The value was 1.78.

And the “LOEC (log10 uM)” value [6]?
Its value is 1.78.

Which “LOEC (log10 uM)” value [9] does the source give for IMphg IL8 up here?
Its value is 1.78.

How did the “LOEC (log10 uM)” value (Azathioprine) turn out when IMphg IL10 down was run?
Its value is 1.48.

And the “LOEC (log10 uM)” value [6]?
The value was 1.78.

And the “LOEC (log10 uM)” value [7]?
Its value is 1.78.

What about the “LOEC (log10 uM)” value [10] of the same test system?
The value was 1.78.

And the “LOEC (log10 uM)” value [8]?
The value was 1.78.

And the “LOEC (log10 uM)” value [11]?
The value was 1.78.

And the “LOEC (log10 uM)” value [12]?
The value was 1.78.

How did the “LOEC (log10 uM)” value (Perfluorooctanamide) turn out when KF3CT MMP9 down was run?
The value was 1.78.

And the “LOEC (log10 uM)” value [6]?
The value was 1.3.

LPS PGE2 up was tested. Which “LOEC (log10 uM)” value [2] did it give?
Its value is 1.78.

What about the “LOEC (log10 uM)” value [8] of the same test system?
The value was 1.78.

hDFCGF Proliferation down was tested. Which “LOEC (log10 uM)” value [1] did it give?
The value was 1.54 ± 0.34.

What about the “LOEC (log10 uM)” value (Azathioprine) of the same test system?
The value was 1.48.

What about the “LOEC (log10 uM)” value [13] of the same test system?
The value was 0.301.

And the “LOEC (log10 uM)” value (Perfluorooctanamidine)?
Its value is 1.78.

What about the “LOEC (log10 uM)” value [5] of the same test system?
Its value is 0.477.

And the “LOEC (log10 uM)” value [6]?
Its value is 1.78.

What about the “LOEC (log10 uM)” value [8] of the same test system?
The value was 1.78.

What about the “LOEC (log10 uM)” value [12] of the same test system?
The value was 1.78.
